# Laboratory results from patent publication US20150197550A1 (UNIVERSITY OF ULSTER, priority 2012, published 2015).
# Numbered stars: 1 amine (or outer) side, 2 acyl side, 3 side chain; on linkers, the order of the positions; unused ones are H or OH. Square brackets hold non-standard residues; d marks the D form. Side chains are listed from the residue outwards. Peptide text beside a SMILES is read from it. * marks the point of attachment. γGlu = O=C(O)[C@H](CCC(=O)[*:2])N[*:1]; Palmitoyl = CCCCCCCCCCCCCCCC(=O)*; Abu = CC[C@H](N)C(=O)O; Aib = CC(C)(N)C(=O)O
# Test: Stability on incubation with mouse plasma for 8 h (RP-HPLC peak height)
# Assay type: in vitro ADME
# Details: mouse plasma, 8 h, peak height vs time = 0 h; read-out: Percentage of degradation after 8h
# Method: The samples were then separated on RP-HPLC and the peak height compared to the value at time=0 hours.
row,Structure (SMILES),metabolised at 8 h [%]
1,"CC[C@H](C)[C@H](NC(=O)[C@H](Cc1ccccc1)NC(=O)[C@@H](NC(=O)CNC(=O)[C@H](CCC(=O)O)NC(=O)[C@@H](C)NC(=O)[C@@H](N)Cc1c[nH]cn1)[C@@H](C)O)C(=O)N[C@@H](CO)C(=O)N[C@@H](CC(=O)O)C(=O)N[C@@H](Cc1ccc(O)cc1)C(=O)N[C@@H](CO)C(=O)N[C@@H](CCCCN)C(=O)N[C@@H](Cc1ccc(O)cc1)C(=O)N[C@@H](CCSC)C(=O)N[C@@H](CC(=O)O)C(=O)N[C@@H](CC(N)=O)C(=O)N[C@@H](CCCNC(=N)N)C(=O)N[C@@H](CCCNC(=N)N)C(=O)N[C@@H](C)C(=O)N[C@@H](CCCCN)C(=O)N[C@@H](CC(=O)O)C(=O)N[C@@H](Cc1ccccc1)C(=O)N[C@H](C(=O)N[C@@H](CCC(N)=O)C(=O)N[C@@H](Cc1c[nH]c2ccccc12)C(=O)N[C@@H](CC(C)C)C(=O)N[C@@H](CCSC)C(=O)N[C@@H](CC(N)=O)C(=O)N[C@H](C(=O)O)[C@@H](C)O)C(C)C [(D-A^2 I^7) dogfish glucagon, (D-A^2I^7) dogfish glucagon] (H-H[dA]EGTFISDYSKYMDNRRAKDFVQWLMNT-OH; N-terminus and C-terminus assumed)",33

# Same assay, conditions: mouse, plasma
row,Structure (SMILES),metabolised at 8 h [%]
1,CC[C@H](NC(=O)[C@@H](N)Cc1c[nH]cn1)C(=O)N[C@@H](CCC(=O)O)C(=O)NCC(=O)N[C@H](C(=O)N[C@@H](Cc1ccccc1)C(=O)N[C@H](C(=O)N[C@@H](CO)C(=O)N[C@@H](CC(=O)O)C(=O)N[C@@H](Cc1ccc(O)cc1)C(=O)N[C@@H](CO)C(=O)N[C@@H](CCCCN)C(=O)N[C@@H](Cc1ccc(O)cc1)C(=O)N[C@@H](CCSC)C(=O)N[C@@H](CC(=O)O)C(=O)N[C@@H](CC(N)=O)C(=O)N[C@@H](CCCNC(=N)N)C(=O)N[C@@H](CCCNC(=N)N)C(=O)N[C@@H](C)C(=O)N[C@@H](CCCCN)C(=O)N[C@@H](CC(=O)O)C(=O)N[C@@H](Cc1ccccc1)C(=O)N[C@H](C(=O)N[C@@H](CCC(N)=O)C(=O)N[C@@H](Cc1c[nH]c2ccccc12)C(=O)N[C@@H](CC(C)C)C(=O)N[C@@H](CCSC)C(=O)N[C@@H](CC(N)=O)C(=O)N[C@H](C(=O)O)[C@@H](C)O)C(C)C)[C@@H](C)O)[C@@H](C)O [(Abu^2) dogfish glucagon] (H-H[Abu]EGTFTSDYSKYMDNRRAKDFVQWLMNT-OH; N-terminus and C-terminus assumed),58.4
2,CSCC[C@H](NC(=O)[C@H](Cc1ccc(O)cc1)NC(=O)[C@H](CCCCN)NC(=O)[C@H](CO)NC(=O)[C@H](Cc1ccc(O)cc1)NC(=O)[C@H](CC(=O)O)NC(=O)[C@H](CO)NC(=O)[C@@H](NC(=O)[C@H](Cc1ccccc1)NC(=O)[C@@H](NC(=O)CNC(=O)[C@H](CCC(=O)O)NC(=O)C(C)(C)NC(=O)[C@@H](N)Cc1c[nH]cn1)[C@@H](C)O)[C@@H](C)O)C(=O)N[C@@H](CC(=O)O)C(=O)N[C@@H](CC(N)=O)C(=O)N[C@@H](CCCNC(=N)N)C(=O)N[C@@H](CCCNC(=N)N)C(=O)N[C@@H](C)C(=O)N[C@@H](CCCCN)C(=O)N[C@@H](CC(=O)O)C(=O)N[C@@H](Cc1ccccc1)C(=O)N[C@H](C(=O)N[C@@H](CCC(N)=O)C(=O)N[C@@H](Cc1c[nH]c2ccccc12)C(=O)N[C@@H](CC(C)C)C(=O)N[C@@H](CCSC)C(=O)N[C@@H](CC(N)=O)C(=O)N[C@H](C(=O)O)[C@@H](C)O)C(C)C [(Aib^2) dogfish glucagon] (H-H[Aib]EGTFTSDYSKYMDNRRAKDFVQWLMNT-OH; N-terminus and C-terminus assumed),47.4
3,"CSCC[C@H](NC(=O)[C@H](C)NC(=O)[C@H](CCCCN)NC(=O)[C@H](CO)NC(=O)[C@H](Cc1ccc(O)cc1)NC(=O)[C@H](CC(=O)O)NC(=O)[C@H](CO)NC(=O)[C@@H](NC(=O)[C@H](Cc1ccccc1)NC(=O)[C@@H](NC(=O)CNC(=O)[C@H](CCC(=O)O)NC(=O)[C@@H](C)NC(=O)[C@@H](N)Cc1c[nH]cn1)[C@@H](C)O)[C@@H](C)O)C(=O)N[C@@H](CC(=O)O)C(=O)N[C@@H](CC(N)=O)C(=O)N[C@@H](CCCNC(=N)N)C(=O)N[C@@H](CCCNC(=N)N)C(=O)N[C@@H](C)C(=O)N[C@@H](CCCCN)C(=O)N[C@@H](CC(=O)O)C(=O)N[C@@H](Cc1ccccc1)C(=O)N[C@H](C(=O)N[C@@H](CCC(N)=O)C(=O)N[C@@H](Cc1c[nH]c2ccccc12)C(=O)N[C@@H](CC(C)C)C(=O)N[C@@H](CCSC)C(=O)N[C@@H](CC(N)=O)C(=O)N[C@H](C(=O)O)[C@@H](C)O)C(C)C [(D-A^2 A^13) dogfish glucagon, (D-A^2A^13) dogfish glucagon] (H-H[dA]EGTFTSDYSKAMDNRRAKDFVQWLMNT-OH; N-terminus and C-terminus assumed)",33.9
4,"CSCC[C@H](NC(=O)[C@H](Cc1ccc(O)cc1)NC(=O)[C@H](CCCCN)NC(=O)[C@H](CO)NC(=O)[C@H](Cc1ccc(O)cc1)NC(=O)[C@H](CC(=O)O)NC(=O)[C@H](CO)NC(=O)[C@@H](NC(=O)[C@H](Cc1ccccc1)NC(=O)[C@@H](NC(=O)CNC(=O)[C@H](CCC(=O)O)NC(=O)[C@@H](C)NC(=O)[C@@H](N)Cc1c[nH]cn1)[C@@H](C)O)[C@@H](C)O)C(=O)N[C@@H](CC(=O)O)C(=O)N[C@@H](CC(N)=O)C(=O)N[C@@H](CCCNC(=N)N)C(=O)N[C@@H](CCCNC(=N)N)C(=O)N[C@@H](C)C(=O)N[C@@H](CCCCN)C(=O)N[C@H](CC(=O)O)C(=O)N[C@@H](Cc1ccccc1)C(=O)N[C@H](C(=O)N[C@@H](CCC(N)=O)C(=O)N[C@@H](Cc1c[nH]c2ccccc12)C(=O)N[C@@H](CC(C)C)C(=O)N[C@@H](CCSC)C(=O)N[C@@H](CC(N)=O)C(=O)N[C@H](C(=O)O)[C@@H](C)O)C(C)C [(D-A^2 D-D^21) dogfish glucagon, (D-A^2D-D^21) dogfish glucagon] (H-H[dA]EGTFTSDYSKYMDNRRAK[dD]FVQWLMNT-OH; N-terminus and C-terminus assumed)",31.7
5,"CSCC[C@H](NC(=O)[C@H](CC(C)C)NC(=O)[C@H](Cc1c[nH]c2ccccc12)NC(=O)[C@H](CCC(N)=O)NC(=O)[C@@H](NC(=O)[C@H](Cc1ccccc1)NC(=O)[C@H](CC(=O)O)NC(=O)[C@H](CCCCN)NC(=O)[C@H](C)NC(=O)[C@H](CCCNC(=N)N)NC(=O)[C@H](CCCNC(=N)N)NC(=O)[C@H](CC(N)=O)NC(=O)[C@H](CC(=O)O)NC(=O)[C@H](CCSC)NC(=O)[C@@H](Cc1ccc(O)cc1)NC(=O)[C@H](CCCCN)NC(=O)[C@H](CO)NC(=O)[C@H](Cc1ccc(O)cc1)NC(=O)[C@H](CC(=O)O)NC(=O)[C@H](CO)NC(=O)[C@@H](NC(=O)[C@H](Cc1ccccc1)NC(=O)[C@@H](NC(=O)CNC(=O)[C@H](CCC(=O)O)NC(=O)[C@@H](C)NC(=O)[C@@H](N)Cc1c[nH]cn1)[C@@H](C)O)[C@@H](C)O)C(C)C)C(=O)N[C@@H](CC(N)=O)C(=O)N[C@H](C(=O)O)[C@@H](C)O [(D-A^2 D-Y^13) dogfish glucagon, (D-A^2D-Y^13) dogfish glucagon] (H-H[dA]EGTFTSDYSK[dY]MDNRRAKDFVQWLMNT-OH; N-terminus and C-terminus assumed)",26.5
6,"CC[C@H](C)[C@H](NC(=O)[C@H](CO)NC(=O)[C@H](Cc1ccc(O)cc1)NC(=O)[C@H](CC(=O)O)NC(=O)[C@H](CO)NC(=O)[C@@H](NC(=O)[C@H](Cc1ccccc1)NC(=O)[C@@H](NC(=O)CNC(=O)[C@H](CCC(=O)O)NC(=O)[C@@H](C)NC(=O)[C@@H](N)Cc1c[nH]cn1)[C@@H](C)O)[C@@H](C)O)C(=O)N[C@@H](Cc1ccc(O)cc1)C(=O)N[C@@H](CCSC)C(=O)N[C@@H](CC(=O)O)C(=O)N[C@@H](CC(N)=O)C(=O)N[C@@H](CCCNC(=N)N)C(=O)N[C@@H](CCCNC(=N)N)C(=O)N[C@@H](C)C(=O)N[C@@H](CCCCN)C(=O)N[C@@H](CC(=O)O)C(=O)N[C@@H](Cc1ccccc1)C(=O)N[C@H](C(=O)N[C@@H](CCC(N)=O)C(=O)N[C@@H](Cc1c[nH]c2ccccc12)C(=O)N[C@@H](CC(C)C)C(=O)N[C@@H](CCSC)C(=O)N[C@@H](CC(N)=O)C(=O)N[C@H](C(=O)O)[C@@H](C)O)C(C)C [(D-A^2 I^12) dogfish glucagon, (D-A^2I^12) dogfish glucagon] (H-H[dA]EGTFTSDYSIYMDNRRAKDFVQWLMNT-OH; N-terminus and C-terminus assumed)",20.7
7,CCCCCCCCCCCCCCCC(=O)N[C@@H](CCC(=O)NCCCC[C@H](NC(=O)[C@@H](NC(=O)[C@H](CC(N)=O)NC(=O)[C@H](CCSC)NC(=O)[C@H](CC(C)C)NC(=O)[C@H](Cc1c[nH]c2ccccc12)NC(=O)[C@H](CCC(N)=O)NC(=O)[C@@H](NC(=O)[C@H](Cc1ccccc1)NC(=O)[C@H](CC(=O)O)NC(=O)[C@H](CCCCN)NC(=O)[C@H](C)NC(=O)[C@H](CCCNC(=N)N)NC(=O)[C@H](CCCNC(=N)N)NC(=O)[C@H](CC(N)=O)NC(=O)[C@H](CC(=O)O)NC(=O)[C@H](CCSC)NC(=O)[C@H](Cc1ccc(O)cc1)NC(=O)[C@H](CCCCN)NC(=O)[C@H](CO)NC(=O)[C@H](Cc1ccc(O)cc1)NC(=O)[C@H](CC(=O)O)NC(=O)[C@H](CO)NC(=O)[C@@H](NC(=O)[C@H](Cc1ccccc1)NC(=O)[C@@H](NC(=O)CNC(=O)[C@H](CCC(=O)O)NC(=O)[C@@H](C)NC(=O)[C@@H](N)Cc1c[nH]cn1)[C@@H](C)O)[C@@H](C)O)C(C)C)[C@@H](C)O)C(=O)O)C(=O)O [(D-A^2) dogfish glucagon Lys^30-γ-Glutamyl-PAL] (H-H[dA]EGTFTSDYSKYMDNRRAKDFVQWLMNTK([γGlu-Palmitoyl])-OH; N-terminus and C-terminus assumed),11.6
